Assay results from patent US9249129B2, “Morpholino substituted urea derivatives as mTOR inhibitors” (CELLZOME LIMITED, priority 2010, dated 2016).

Key:
[1] = biological target: T1, mTOR (Homo sapiens, UniProt P42345); test: mTOR kinobeads assay (dot blot detection); assay type: binding; conditions: Table 4, read-out: Inhibition values (IC50) mTOR
T1 construct: endogenous in cells; host or cells: Jurkat cells (ATCC TIB-152, clone E6-1), lysate
Procedure, shortened: (§1)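 Jurkat cell lysate (5 mg/ml protein) was incubated with test compounds and kinobeads (immobilized phenylthiazole and phenylmorpholin-chromen ligands) for 2 h in the cold with shaking. Bead-bound kinase was SDS-eluted and quantified by antibody dot blot with infrared detection. IC50 values came from dose-response curves.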

[2] = biological target: T2, PI3Kβ (Homo sapiens, UniProt P42338); test: kinobeads assay, PI3K beta (dot blot detection); assay type: binding; conditions: Table 4, read-out: Inhibition values (IC50) PI3Kb
T2 construct: endogenous in cells; host or cells: Jurkat cells (ATCC TIB-152) lysate, the only lysate described

[3] = biological target: T3, PI3Kα (Homo sapiens, UniProt P42336); test: kinobeads assay, PI3K alpha (dot blot detection); assay type: binding; conditions: Table 4, read-out: Inhibition values (IC50) PI3Ka
T3 construct: endogenous in cells; host or cells: Jurkat cells (ATCC TIB-152) lysate, the only lysate described

[4] = biological target: T4, DNA-dependent protein kinase (DNA-PK) (Homo sapiens, UniProt P78527); test: kinobeads assay, DNA-PK (dot blot detection); assay type: binding; conditions: Table 4, read-out: Inhibition values (IC50) DNAPK
T4 construct: endogenous in cells; host or cells: Jurkat cells (ATCC TIB-152, clone E6-1), lysate
Procedure, shortened: as §1

[5] = system: Akt serine-473 phosphorylation in HEK293T/17 cells; test: In vitro phospho-Akt cellular assay (pAkt S473); assay type: cell-based; conditions: Homo sapiens, Table 6, 2 hours, Akt Ser473, read-out: pAKT (Phospho-Akt cell assay data, activity level)
Excerpt: In Vitro Phospho-S6 and Phospho-Akt Cellular Assay
Activation of mTOR signaling results in phosphorylation of several downstream targets. In cells, mTOR exists in two different protein complexes. The mTOR Complex-1 (mTORC1) phosphorylates and activates S6 Kinase 1 (S6K1) and S6 Kinase 2 (S6K2) (also known as p70S6K) which then phosphorylate S6 Ribosomal Protein (S6RP) (also known as RPS6). S6RP is phosphorylated on serine 235, serine 236, serine 240 and serine 244 by both pS6K1 and pS6K2. The mTOR Complex-2 (mTORC2) phosphorylates AKT on serine 473 which activates the AKT signaling pathway.
The assay measures a test compound's inhibition of S6RP serine-240/244 phosphorylation and inhibition of Akt serine-473 phosphorylation in human embryonic kidney derived HEK293T/17 cells (ATCC CRL-11268).
The HEK293T/17 cell line is maintained in DMEM media (Invitrogen catalogue number 41965-039) supplemented with 10% FCS at 37° C. in a 5% CO2 humidified incubator.
Cells are seeded in 96-well plates at 40,000 cells/well (pS6RP S240/244 assay) or 80,000 cells/well (pAkt 5473 assay) in 90 μl growth media (DMEM, 2% FCS). Plates are incubated for 1 hour in a humidified incubator to allow the cells to adhere. Cells are treated with 8 concentrations of test compounds or DMSO alone for controls (final DMSO concentration 0.1%) and incubated at 37° C. for 2 hours. Then 20 μl of 5× concentrated lysis buffer (750 mM NaCl, 100 mM Tris pH7.4, 5 mM EDTA, 5 mM EGTA, 5% Triton X-100) is added, plates are sealed and incubated for 15 minutes at 4° C. with gentle shaking. After cell lysis, 25 μl cell lysate is transferred to a MesoScale plate coated with an antibody to pS6RP Ser240/244 (MesoScale Discovery K150DGD-3) or an antibody to pAkt Ser 473 (MesoScale Discovery K151DGD-3). Plates have been blocked before by incubation with 150 μl MesoScale Discovery Blocking Solution-A for 1 hour at room temperature followed by washing with 150 μl 1× Tris wash buffer per well. After the transfer of the cell lysate to the MSD plate, the pS6RP (or pAkt) protein is captured on the coated antibody by incubation at room temperature for 1 hour with gentle shaking. After the capture step the plate is washed three times with 150 μl of 1× Tris wash buffer per well. Then 25 μl detection antibody conjugated with a Sulfo-Tag is added and incubated for 1 hour at room temperature with gentle shaking. Subsequently the antibody solution is removed and the plate is washed 3 times with 150 μl 1× Tris wash buffer per well and 150 μl Read buffer is added. The plates are analysed on a MSD 2400 Plate Reader (MesoScale Discovery). Data analysis is performed using nonlinear regression for a sigmoidal dose-response with a variable slope.

[6] = biological target: T5, PI3K delta (PI3Kd) (Homo sapiens, UniProt O00329); test: kinobeads assay, PI3K delta (dot blot detection); assay type: binding; conditions: Table 4, read-out: Inhibition values (IC50) PI3Kd
T5 construct: endogenous in cells; host or cells: Jurkat cells (ATCC TIB-152, clone E6-1), lysate
Procedure, shortened: as §1

[7] = biological target: T6, PI3Kγ (Homo sapiens, UniProt P48736); test: kinobeads assay, PI3K gamma (dot blot detection); assay type: binding; conditions: Table 4, read-out: Inhibition values (IC50) PI3Kg
T6 construct: endogenous in cells; host or cells: Jurkat cells (ATCC TIB-152) lysate, the only lysate described

[8] = system: S6RP serine-240/244 phosphorylation in HEK293T/17 cells; test: In vitro phospho-S6 cellular assay (pS6RP S240/244); assay type: cell-based; conditions: Homo sapiens, Table 6, 2 hours, S6RP Ser240/244, read-out: pS6 (phospho-S6 cell assay data, activity level)
Procedure, shortened: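 HEK293T/17 cells in DMEM with 2% FCS treated with 8 compound concentrations (0.1% DMSO) for 2 h at 37 °C, then lysed. Phospho-S6RP Ser240/244 or phospho-Akt Ser473 quantified by MesoScale sandwich immunoassay with Sulfo-Tag detection; IC50 from variable-slope sigmoidal fit.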

T2 sequence (P42338 whole entry): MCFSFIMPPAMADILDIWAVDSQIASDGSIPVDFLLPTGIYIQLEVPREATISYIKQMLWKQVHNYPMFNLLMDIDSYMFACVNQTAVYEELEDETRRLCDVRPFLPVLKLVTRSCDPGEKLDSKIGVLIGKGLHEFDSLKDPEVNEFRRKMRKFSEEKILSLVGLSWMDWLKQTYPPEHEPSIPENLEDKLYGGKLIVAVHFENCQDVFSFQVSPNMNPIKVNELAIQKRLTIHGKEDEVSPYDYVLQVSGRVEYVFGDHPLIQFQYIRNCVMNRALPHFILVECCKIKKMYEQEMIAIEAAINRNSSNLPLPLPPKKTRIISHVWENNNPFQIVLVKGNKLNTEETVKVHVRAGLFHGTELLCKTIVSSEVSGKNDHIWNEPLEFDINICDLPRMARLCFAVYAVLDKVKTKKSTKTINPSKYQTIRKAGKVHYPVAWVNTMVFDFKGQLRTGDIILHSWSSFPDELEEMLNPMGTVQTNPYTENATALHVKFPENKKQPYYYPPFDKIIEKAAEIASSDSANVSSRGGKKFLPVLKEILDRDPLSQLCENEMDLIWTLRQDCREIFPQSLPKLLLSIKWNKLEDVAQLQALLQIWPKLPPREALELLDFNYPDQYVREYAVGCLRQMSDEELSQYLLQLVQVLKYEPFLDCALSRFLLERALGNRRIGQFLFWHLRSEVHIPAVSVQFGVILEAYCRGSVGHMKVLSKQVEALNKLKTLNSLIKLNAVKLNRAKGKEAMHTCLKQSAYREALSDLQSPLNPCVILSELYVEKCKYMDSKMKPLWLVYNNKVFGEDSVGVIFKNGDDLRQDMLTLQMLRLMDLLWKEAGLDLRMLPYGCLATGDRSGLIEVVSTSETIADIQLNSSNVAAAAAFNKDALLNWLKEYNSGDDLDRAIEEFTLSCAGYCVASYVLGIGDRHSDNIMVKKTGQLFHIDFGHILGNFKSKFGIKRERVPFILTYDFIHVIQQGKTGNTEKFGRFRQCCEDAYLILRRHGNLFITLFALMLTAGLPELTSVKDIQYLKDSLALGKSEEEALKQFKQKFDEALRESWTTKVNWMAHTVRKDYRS
T2 sequence (P27986 whole entry partner): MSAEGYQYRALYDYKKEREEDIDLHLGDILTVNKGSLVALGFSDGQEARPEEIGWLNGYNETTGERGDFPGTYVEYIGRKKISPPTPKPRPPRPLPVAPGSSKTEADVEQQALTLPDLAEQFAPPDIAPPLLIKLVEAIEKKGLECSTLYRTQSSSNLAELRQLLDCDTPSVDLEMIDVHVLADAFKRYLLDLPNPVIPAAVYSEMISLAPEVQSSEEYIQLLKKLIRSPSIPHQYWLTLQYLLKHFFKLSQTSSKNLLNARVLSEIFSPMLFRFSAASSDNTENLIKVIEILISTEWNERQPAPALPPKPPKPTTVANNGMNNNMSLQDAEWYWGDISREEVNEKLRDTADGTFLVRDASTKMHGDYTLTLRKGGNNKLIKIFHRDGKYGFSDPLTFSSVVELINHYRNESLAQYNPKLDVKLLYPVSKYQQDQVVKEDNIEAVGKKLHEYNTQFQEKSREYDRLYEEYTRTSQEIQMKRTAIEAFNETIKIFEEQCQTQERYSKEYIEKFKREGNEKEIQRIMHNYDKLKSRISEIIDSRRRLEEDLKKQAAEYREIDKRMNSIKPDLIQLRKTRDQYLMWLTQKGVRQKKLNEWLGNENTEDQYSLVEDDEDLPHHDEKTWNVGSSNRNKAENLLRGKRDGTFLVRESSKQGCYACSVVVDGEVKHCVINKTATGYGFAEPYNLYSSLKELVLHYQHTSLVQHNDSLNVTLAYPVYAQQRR
T5 sequence (O00329 whole entry): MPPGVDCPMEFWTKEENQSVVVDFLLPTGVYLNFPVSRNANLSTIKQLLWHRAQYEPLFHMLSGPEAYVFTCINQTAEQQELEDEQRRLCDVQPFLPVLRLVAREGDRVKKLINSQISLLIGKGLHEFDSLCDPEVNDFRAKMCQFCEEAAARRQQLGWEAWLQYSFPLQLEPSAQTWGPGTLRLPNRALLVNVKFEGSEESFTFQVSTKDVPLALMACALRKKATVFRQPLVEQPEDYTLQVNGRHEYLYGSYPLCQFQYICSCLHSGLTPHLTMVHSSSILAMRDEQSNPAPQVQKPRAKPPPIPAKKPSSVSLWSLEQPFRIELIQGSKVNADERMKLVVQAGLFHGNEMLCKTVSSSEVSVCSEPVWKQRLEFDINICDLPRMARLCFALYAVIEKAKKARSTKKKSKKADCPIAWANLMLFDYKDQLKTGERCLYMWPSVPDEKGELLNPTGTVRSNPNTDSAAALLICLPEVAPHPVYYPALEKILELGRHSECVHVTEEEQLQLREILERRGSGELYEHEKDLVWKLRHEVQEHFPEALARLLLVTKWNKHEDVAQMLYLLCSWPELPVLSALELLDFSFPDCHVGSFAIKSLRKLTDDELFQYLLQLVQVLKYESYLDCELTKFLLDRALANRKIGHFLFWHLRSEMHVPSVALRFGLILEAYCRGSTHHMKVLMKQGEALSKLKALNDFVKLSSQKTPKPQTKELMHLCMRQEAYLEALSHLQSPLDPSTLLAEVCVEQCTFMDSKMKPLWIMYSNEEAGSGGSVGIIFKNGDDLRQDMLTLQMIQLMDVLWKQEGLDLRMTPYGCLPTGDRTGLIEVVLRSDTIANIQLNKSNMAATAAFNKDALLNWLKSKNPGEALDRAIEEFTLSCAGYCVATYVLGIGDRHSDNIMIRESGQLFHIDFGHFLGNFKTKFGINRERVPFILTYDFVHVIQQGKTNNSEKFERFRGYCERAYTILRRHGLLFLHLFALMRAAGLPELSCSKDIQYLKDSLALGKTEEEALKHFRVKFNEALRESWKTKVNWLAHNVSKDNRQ
T5 sequence (P27986 whole entry partner): as the sequence (P27986 whole entry partner) above
T3 sequence (P42336 whole entry): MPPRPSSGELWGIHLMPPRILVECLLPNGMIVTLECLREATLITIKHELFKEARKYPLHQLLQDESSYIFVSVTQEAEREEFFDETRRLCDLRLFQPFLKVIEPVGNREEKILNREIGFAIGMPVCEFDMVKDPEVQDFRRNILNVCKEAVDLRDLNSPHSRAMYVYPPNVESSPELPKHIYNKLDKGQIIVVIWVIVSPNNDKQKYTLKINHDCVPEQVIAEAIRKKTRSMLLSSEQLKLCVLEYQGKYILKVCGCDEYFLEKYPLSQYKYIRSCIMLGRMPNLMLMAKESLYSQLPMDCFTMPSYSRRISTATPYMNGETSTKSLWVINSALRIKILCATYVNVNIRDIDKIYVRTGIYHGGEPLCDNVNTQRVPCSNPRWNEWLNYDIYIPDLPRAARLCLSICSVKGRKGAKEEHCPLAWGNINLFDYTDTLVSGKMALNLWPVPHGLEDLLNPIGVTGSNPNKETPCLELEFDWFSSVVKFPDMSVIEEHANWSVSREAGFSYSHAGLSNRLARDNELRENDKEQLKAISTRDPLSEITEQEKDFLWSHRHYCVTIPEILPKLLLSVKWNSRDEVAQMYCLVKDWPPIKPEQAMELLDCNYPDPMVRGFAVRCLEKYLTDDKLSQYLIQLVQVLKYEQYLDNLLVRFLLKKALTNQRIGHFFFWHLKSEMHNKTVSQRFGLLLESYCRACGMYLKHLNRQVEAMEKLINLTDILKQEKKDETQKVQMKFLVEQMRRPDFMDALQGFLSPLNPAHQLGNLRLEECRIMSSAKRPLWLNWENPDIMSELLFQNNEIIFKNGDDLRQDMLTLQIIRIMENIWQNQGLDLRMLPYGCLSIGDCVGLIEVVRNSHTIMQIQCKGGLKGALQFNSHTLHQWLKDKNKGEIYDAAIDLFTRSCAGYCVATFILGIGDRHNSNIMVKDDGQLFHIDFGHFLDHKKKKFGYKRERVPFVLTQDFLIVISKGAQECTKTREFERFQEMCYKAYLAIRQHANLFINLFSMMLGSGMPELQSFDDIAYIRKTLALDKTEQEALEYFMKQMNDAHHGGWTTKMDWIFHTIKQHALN
T3 sequence (P27986 whole entry partner): as the sequence (P27986 whole entry partner) above
T6 sequence (P48736 whole entry): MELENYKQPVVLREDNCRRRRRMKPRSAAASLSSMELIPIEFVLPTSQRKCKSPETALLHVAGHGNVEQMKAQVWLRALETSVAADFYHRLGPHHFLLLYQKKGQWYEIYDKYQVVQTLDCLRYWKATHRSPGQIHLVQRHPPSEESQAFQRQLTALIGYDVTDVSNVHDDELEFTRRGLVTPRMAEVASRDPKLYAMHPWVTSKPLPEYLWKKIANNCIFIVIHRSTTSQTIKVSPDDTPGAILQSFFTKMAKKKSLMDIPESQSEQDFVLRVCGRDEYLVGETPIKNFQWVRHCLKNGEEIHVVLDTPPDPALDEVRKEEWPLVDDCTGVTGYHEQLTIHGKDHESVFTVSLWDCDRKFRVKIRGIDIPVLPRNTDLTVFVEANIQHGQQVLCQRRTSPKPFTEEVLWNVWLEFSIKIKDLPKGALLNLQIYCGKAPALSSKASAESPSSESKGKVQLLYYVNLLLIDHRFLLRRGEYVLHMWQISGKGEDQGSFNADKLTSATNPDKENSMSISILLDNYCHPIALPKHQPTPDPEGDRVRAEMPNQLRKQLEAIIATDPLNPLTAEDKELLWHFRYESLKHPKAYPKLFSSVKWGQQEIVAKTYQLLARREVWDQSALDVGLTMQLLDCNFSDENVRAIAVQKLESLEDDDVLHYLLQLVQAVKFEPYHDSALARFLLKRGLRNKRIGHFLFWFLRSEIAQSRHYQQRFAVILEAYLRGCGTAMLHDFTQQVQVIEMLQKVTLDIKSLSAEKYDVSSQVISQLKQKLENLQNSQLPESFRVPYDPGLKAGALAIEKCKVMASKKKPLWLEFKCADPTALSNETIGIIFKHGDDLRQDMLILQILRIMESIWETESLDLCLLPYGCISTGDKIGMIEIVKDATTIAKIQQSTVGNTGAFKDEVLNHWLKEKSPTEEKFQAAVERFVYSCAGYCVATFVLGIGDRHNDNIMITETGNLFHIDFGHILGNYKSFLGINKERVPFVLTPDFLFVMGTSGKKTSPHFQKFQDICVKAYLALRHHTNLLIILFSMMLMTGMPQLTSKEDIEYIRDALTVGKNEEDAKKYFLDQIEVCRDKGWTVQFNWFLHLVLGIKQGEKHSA

Structure (SMILES) | IC50 [1] [µM] | IC50 [2] [µM] | IC50 [3] [µM] | IC50 [4] [µM] | IC50 [5] [µM] | IC50 [6] [µM] | IC50 [7] [µM] | IC50 [8] [µM]
C[C@@H](CO)NC(=O)Nc1ccc(-c2cc(-c3cc(F)ccc3S(C)(=O)=O)nc(N3CCOC[C@@H]3C)n2)cc1 [Example 74, 1-(4-(6-(5-fluoro-2-(methylsulfonyl)phenyl)-2-((S)-3-methylmorpholino)pyrimidin-4-yl)phenyl)-3-((S)-1-hydroxypropan-2-yl)urea] | 0.1 to 1 | ≥ 10 | ≥ 10 | ≥ 10 | < 0.1 | ≥ 10 | ≥ 10 | < 0.1
C[C@H]1COCCN1c1nc(-c2ccc(NC(=O)NC3(CO)CCC3)cc2)cc(-c2cc(F)ccc2S(C)(=O)=O)n1 [Example 75, (S)-1-(4-(6-(5-fluoro-2-(methylsulfonyl)phenyl)-2-(3-methylmorpholino)pyrimidin-4-yl)phenyl)-3-(1-(hydroxymethyl)cyclobutyl)urea] | 0.1 to 1 | ≥ 10 | ≥ 10 | ≥ 10 | – | ≥ 10 | ≥ 10 | 0.1 to 1
C[C@H]1COCCN1c1cc(-c2cc(F)ccc2S(C)(=O)=O)nc(-c2ccc(NC(=O)NC3CC3)cc2)n1 [Example 77, (S)-1-cyclopropyl-3-(4-(4-(5-fluoro-2-(methylsulfonyl)phenyl)-6-(3-methylmorpholino)pyrimidin-2-yl)phenyl)urea] | 0.1 to 1 | ≥ 10 | ≥ 10 | ≥ 10 | < 0.1 | ≥ 10 | ≥ 10 | < 0.1
C[C@H]1COCCN1c1cc(-c2cc(F)ccc2S(C)(=O)=O)nc(-c2ccc(NC(=O)NCCO)cc2)n1 [Example 78, (S)-1-(4-(4-(5-fluoro-2-(methylsulfonyl)phenyl)-6-(3-methylmorpholino)pyrimidin-2-yl)phenyl)-3-(2-hydroxyethyl)urea] | < 0.1 | ≥ 10 | ≥ 10 | ≥ 10 | < 0.1 | ≥ 10 | ≥ 10 | < 0.1
COC1CC(NC(=O)Nc2ccc(-c3cc(-c4cc(F)ccc4S(C)(=O)=O)nc(N4CCOC[C@@H]4C)n3)cc2)C1 (stereo partly drawn) [Example 79, (S)-1-(4-(6-(5-fluoro-2-(methylsulfonyl)phenyl)-2-(3-methylmorpholino)pyrimidin-4-yl)phenyl)-3-(3-methoxycyclobutyl)urea] | 1 to 10 | ≥ 10 | ≥ 10 | ≥ 10 | – | ≥ 10 | ≥ 10 | 0.1 to 1
C[C@H]1COCCN1c1cc(-c2ccccc2S(C)(=O)=O)nc(-c2ccc(NC(=O)NCCO)cc2)n1 [Example 80, (S)-1-(2-hydroxyethyl)-3-(4-(4-(3-methylmorpholino)-6-(2-(methylsulfonyl)phenyl)pyrimidin-2-yl)phenyl)urea] | < 0.1 | ≥ 10 | ≥ 10 | ≥ 10 | – | ≥ 10 | ≥ 10 | < 0.1
CS(=O)(=O)c1ccc(F)cc1-c1cc(-c2ccc(NC(=O)NC3CC3)cc2)nc(N2CC3CCC(C2)O3)n1 [Example 81, 1-(4-(2-(8-oxa-3-azabicyclo[3.2.1]octan-3-yl)-6-(5-fluoro-2-(methylsulfonyl)phenyl)pyrimidin-4-yl)phenyl)-3-cyclopropylurea] | 0.1 to 1 | ≥ 10 | ≥ 10 | ≥ 10 | – | ≥ 10 | ≥ 10 | < 0.1
C[C@@H](O)CNC(=O)Nc1ccc(-c2cc(-c3cc(F)ccc3S(C)(=O)=O)nc(N3CCOC[C@@H]3C)n2)cc1 [Example 82] | 1 to 10 | ≥ 10 | ≥ 10 | ≥ 10 | – | ≥ 10 | ≥ 10 | < 0.1
C[C@H](O)CNC(=O)Nc1ccc(-c2cc(-c3cc(F)ccc3S(C)(=O)=O)nc(N3CCOC[C@@H]3C)n2)cc1 [Example 83, 1-(4-(6-(5-fluoro-2-(methylsulfonyl)phenyl)-2-((S)-3-methylmorpholino)pyrimidin-4-yl)phenyl)-3-((S)-2-hydroxypropyl)urea] | 0.1 to 1 | ≥ 10 | ≥ 10 | ≥ 10 | – | ≥ 10 | ≥ 10 | < 0.1
C[C@H]1COCCN1c1nc(-c2ccc(NC(=O)NCCN)cc2)cc(-c2cc(F)ccc2S(C)(=O)=O)n1 [Example 84, (S)-1-(2-aminoethyl)-3-(4-(6-(5-fluoro-2-(methylsulfonyl)phenyl)-2-(3-methylmorpholino)pyrimidin-4-yl)phenyl)urea] | 0.1 to 1 | ≥ 10 | ≥ 10 | ≥ 10 | – | ≥ 10 | ≥ 10 | 1 to 10
C[C@H]1COCCN1c1nc(-c2ccc(NC(=O)NC3COC3)cc2)cc(-c2cc(F)ccc2S(C)(=O)=O)n1 [Example 86, (S)-1-(4-(6-(5-fluoro-2-(methylsulfonyl)phenyl)-2-(3-methylmorpholino)pyrimidin-4-yl)phenyl)-3-(oxetan-3-yl)urea] | 0.1 to 1 | ≥ 10 | ≥ 10 | ≥ 10 | – | ≥ 10 | ≥ 10 | 0.1 to 1
CCS(=O)(=O)c1ccccc1-c1cc(-c2ccc(NC(=O)NC3CC3)cc2)nc(N2CCOC[C@@H]2C)n1 [Example 87, (S)-1-cyclopropyl-3-(4-(6-(2-(ethylsulfonyl)phenyl)-2-(3-methylmorpholino)pyrimidin-4-yl)phenyl)urea] | 0.1 to 1 | ≥ 10 | ≥ 10 | ≥ 10 | – | ≥ 10 | ≥ 10 | < 0.1
C[C@H]1COCCN1c1nc(-c2ccc(NC(=O)NC3CC3)cc2)cc(-c2ccccc2S(=O)(=O)N2CCCC2)n1 [Example 88, (S)-1-cyclopropyl-3-(4-(2-(3-methylmorpholino)-6-(2-(pyrrolidin-1-ylsulfonyl)phenyl)pyrimidin-4-yl)phenyl)urea] | 1 to 10 | ≥ 10 | ≥ 10 | ≥ 10 | – | ≥ 10 | ≥ 10 | < 0.1
